Assay results taken from patent US20170007700A1, “COMPOSITIONS AND METHODS FOR BORON NEUTRON CAPTURE THERAPY” (THE CURATORS OF THE UNIVERSITY OF MISSOURI, priority 2014, published 2017).

Test: Metabolic transformation of TAC and MAC in vivo (MALDI-MS of mouse urine)
Set-up: species or system mice
Conditions: for metabolic degradation in vivo: mice given TAC/MAC liposomes
Text: One of the components of in vivo biodistribution study of TAC/MAC liposomes in mice was identification of any metabolic transformation of either TAC or MAC in the body. Metabolic degradation of TAC was not observed in vivo. […] Three main metabolites of MAC were identified in mouse urine by matrix-assisted laser desorption […] mass spectrometry (MALDI-MS) analysis and are illustrated in FIG. 4.

main metabolites identified in mouse urine (MALDI-MS)	metabolic degradation in vivo	Substance
Three	expelled without change	K[nido-7-CH3(CH2)15-7,8-C2B9H11] [MAC]
	not observed	Na3[1-(2′-B10H9)-2-NH3B10H8] [TAC]
